Results published in article PMC7187627 (Antimicrobial Agents and Chemotherapy, 2019).

Assay: Safety and tolerability (adverse events, laboratory tests, ECG), multiple-ascending-dose phase 1 study
Type: in vivo
Conditions: all TEAEs
Description: Subjects were monitored closely with serial physical examinations, blood evaluations, and 12-lead ECGs. Subjects underwent safety laboratory testing, including measurement of blood cell counts (white blood cell [WBC] with differential, hemoglobin, and platelets), serum chemistry (sodium, potassium, chloride, calcium, bicarbonate, glucose, creatinine, blood urea nitrogen [BUN], creatine kinase [CK], aspartate aminotransferase [AST], alanine aminotransferase [ALT], alkaline phosphatase [ALP], total bilirubin, protein, albumin, amylase, and lipase) and urinalysis (protein, blood, and glucose). Study halting criteria had been established and were reviewed by an independent safety monitor (ISM) and the Safety Monitoring Committee (SMC) prior to proceeding with dosing within a cohort or to the next cohort.
The safety population included all subjects who received at least one dose of the study drug. The safety and tolerability of CRS3123 were evaluated by the sequential review of reported adverse events (AEs), changes from baseline in physical examination findings, vital sign measurements, safety laboratory tests (hematology, clinical chemistry, and urinalysis), and key 12-lead ECG findings. All safety assessments were summarized with descriptive statistics or frequency counts.
The period of observation for AE reporting began on day 1 at the time of study drug administration and continued through the final visit.
All AEs were coded to system organ class (SOC) and preferred term (PT) using the Medical Dictionary for Regulatory Activities (MedDRA), version 17.0 (https://www.meddra.org/). A treatment-emergent AE (TEAE) was defined as any AE that occurred during the study observation period (i.e., from day 1 at the time of study drug administration through the final visit). An AE with a partial onset date was classified as a TEAE if the reported partial onset date could not definitely be identified as before the date of study drug administration. Any AE with a missing onset date or missing time on day of study drug administration was classified as a TEAE.
To count the overall number of subjects who experienced each TEAE and calculation of an occurrence rate, a subject experiencing multiple occurrences of an AE was counted only once for that PT. Similarly, if a subject experienced multiple TEAEs within the same SOC, that subject was counted once to calculate an occurrence rate for the SOC. To count the number of subjects who experienced each TEAE by severity classification (mild, moderate, severe, and life-threatening) and calculate an occurrence rate, a subject experiencing multiple occurrences of an AE of the same severity was counted once in that particular severity classification for that PT. If a subject experienced multiple occurrences of an AE of differing severities, only the most severe occurrence within each PT was counted.

For O=c1cc(NCCCN[C@@H]2CCOc3c(Br)cc(Br)cc32)[nH]c2ccsc12 [CRS3123], the “No. (%) of subjects: Aspartate aminotransferase increased” value (Cohort A, 200 mg Q12h (n = 8)) was 0 (0.0), the “No. (%) of subjects: Blood bilirubin increased” value (Cohort A, 200 mg Q12h (n = 8)) was 0 (0.0) and the “No. (%) of subjects: Blood calcium increased” value (Cohort A, 200 mg Q12h (n = 8)) was 0 (0.0). For the same compound, the “No. (%) of subjects: Blood potassium increased” value (Cohort A, 200 mg Q12h (n = 8)) was 0 (0.0), the “No. (%) of subjects: Blood pressure, diastolic, decreased” value (Cohort A, 200 mg Q12h (n = 8)) was 0 (0.0) and the “No. (%) of subjects: Blood pressure, diastolic, increased” value (Cohort A, 200 mg Q12h (n = 8)) was 0 (0.0). For the same compound, the “No. (%) of subjects: Blood pressure, systolic, decreased” value (Cohort A, 200 mg Q12h (n = 8)) was 0 (0.0), the “No. (%) of subjects: Blood pressure, systolic, increased” value (Cohort A, 200 mg Q12h (n = 8)) was 0 (0.0) and the “No. (%) of subjects: Diarrhea” value (Cohort A, 200 mg Q12h (n = 8)) was 0 (0.0). The “No. (%) of subjects: Dry skin” value (Cohort A, 200 mg Q12h (n = 8)) was 0 (0.0), the “No. (%) of subjects: Dysgeusia” value (Cohort A, 200 mg Q12h (n = 8)) was 0 (0.0) and the “No. (%) of subjects: Ear and labyrinth disorders (system organ class)” value (Cohort A, 200 mg Q12h (n = 8)) was 1 (12.5). For the same compound, the “No. (%) of subjects: Ear discomfort” value (Cohort A, 200 mg Q12h (n = 8)) was 1 (12.5), the “No. (%) of subjects: Erythema” value (Cohort A, 200 mg Q12h (n = 8)) was 0 (0.0) and the “No. (%) of subjects: Gastrointestinal disorders (system organ class)” value (Cohort A, 200 mg Q12h (n = 8)) was 0 (0.0). The “No. (%) of subjects: General disorders and administration site conditions (system organ class)” value (Cohort A, 200 mg Q12h (n = 8)) was 0 (0.0), the “No. (%) of subjects: Headache” value (Cohort A, 200 mg Q12h (n = 8)) was 1 (12.5) and the “No. (%) of subjects: Hemoglobin decreased” value (Cohort A, 200 mg Q12h (n = 8)) was 2 (25.0). The “No. (%) of subjects: Infections and infestations (system organ class)” value (Cohort A, 200 mg Q12h (n = 8)) was 1 (12.5), the “No. (%) of subjects: Infusion site thrombosis” value (Cohort A, 200 mg Q12h (n = 8)) was 0 (0.0) and the “No. (%) of subjects: Injury, poisoning, and procedural complications (system organ class)” value (Cohort A, 200 mg Q12h (n = 8)) was 1 (12.5). The “No. (%) of subjects: Investigations (system organ class)” value (Cohort A, 200 mg Q12h (n = 8)) was 5 (62.5), the “No. (%) of subjects: Lipase increased” value (Cohort A, 200 mg Q12h (n = 8)) was 1 (12.5) and the “No. (%) of subjects: Musculoskeletal and connective tissue disorders (system organ class)” value (Cohort A, 200 mg Q12h (n = 8)) was 0 (0.0). The “No. (%) of subjects: Myalgia” value (Cohort A, 200 mg Q12h (n = 8)) was 0 (0.0), the “No. (%) of subjects: Nervous system disorders (system organ class)” value (Cohort A, 200 mg Q12h (n = 8)) was 1 (12.5) and the “No. (%) of subjects: Oropharyngeal pain” value (Cohort A, 200 mg Q12h (n = 8)) was 0 (0.0). For the same compound, the “No. (%) of subjects: Psychiatric disorders (system organ class)” value (Cohort A, 200 mg Q12h (n = 8)) was 1 (12.5), the “No. (%) of subjects: Respiratory, thoracic, and mediastinal disorders (system organ class)” value (Cohort A, 200 mg Q12h (n = 8)) was 0 (0.0) and the “No. (%) of subjects: Skin and subcutaneous tissue disorders (system organ class)” value (Cohort A, 200 mg Q12h (n = 8)) was 0 (0.0). For the same compound, the “No. (%) of subjects: Subjects with TEAEs” value (Cohort A, 200 mg Q12h (n = 8)) was 8 (100.0), the “No. (%) of subjects: Throat irritation” value (Cohort A, 200 mg Q12h (n = 8)) was 0 (0.0) and the “No. (%) of subjects: Upper respiratory tract infection” value (Cohort A, 200 mg Q12h (n = 8)) was 1 (12.5). For the same compound, the “No. (%) of subjects: White blood cell count increased” value (Cohort A, 200 mg Q12h (n = 8)) was 0 (0.0), the “No. (%) of subjects: Alanine aminotransferase increased” value (Cohort B, 400 mg Q12h (n = 8)) was 0 (0.0) and the “No. (%) of subjects: Amylase increased” value (Cohort B, 400 mg Q12h (n = 8)) was 1 (12.5). For the same compound, the “No. (%) of subjects: Anxiety” value (Cohort B, 400 mg Q12h (n = 8)) was 0 (0.0), the “No. (%) of subjects: Arthropod bite” value (Cohort B, 400 mg Q12h (n = 8)) was 0 (0.0) and the “No. (%) of subjects: Aspartate aminotransferase increased” value (Cohort B, 400 mg Q12h (n = 8)) was 0 (0.0). For the same compound, the “No. (%) of subjects: Blood bilirubin increased” value (Cohort B, 400 mg Q12h (n = 8)) was 0 (0.0), the “No. (%) of subjects: Blood calcium increased” value (Cohort B, 400 mg Q12h (n = 8)) was 1 (12.5) and the “No. (%) of subjects: Blood potassium increased” value (Cohort B, 400 mg Q12h (n = 8)) was 1 (12.5). For the same compound, the “No. (%) of subjects: Blood pressure, diastolic, decreased” value (Cohort B, 400 mg Q12h (n = 8)) was 0 (0.0), the “No. (%) of subjects: Blood pressure, diastolic, increased” value (Cohort B, 400 mg Q12h (n = 8)) was 0 (0.0) and the “No. (%) of subjects: Blood pressure, systolic, decreased” value (Cohort B, 400 mg Q12h (n = 8)) was 0 (0.0). The “No. (%) of subjects: Blood pressure, systolic, increased” value (Cohort B, 400 mg Q12h (n = 8)) was 0 (0.0) and the “No. (%) of subjects: Diarrhea” value (Cohort B, 400 mg Q12h (n = 8)) was 2 (25.0).
